Here are results for 43 molecules from US20080234233A1, “MEDICAMENT FOR TREATMENT OF NEURODEGENERATIVE DISEASES” (INSTITUTE OF MEDICINAL MOLECULAR DESIGN INC., priority 2002, published 2008).

This test relates to NF-κ B activation. Description: Inhibitory activity of NF-κB activation, luciferase reporter assay under TNF-α stimulation in HepG2. Conditions: HepG2, TNF-α 40 ng/ml, 4 hours; for inhibition at 1 µg/mL / inhibition at 10 µg/mL: Homo sapiens, read-out: Inhibitory rate against NF-κB activation (%). It is filed as cell-based, human. Put shortly:
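HepG2 cells transiently transfected with luciferase reporter carrying five tandem NF-κB binding sites, then stimulated with TNF-α (40 ng/ml) ± compound for 4 hours. Luminescent luciferase activity measured; inhibition expressed relative to activity without compound.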

Each structure is given as a SMILES string.

Take `COc1ccc(Oc2ccccc2)cc1NC(=O)c1cc(Cl)ccc1O` [compound 171]: the “Inhibitory rate against NF-κB activation (%)” value (“Inhibitory rate … (%)” for short) was determined as 90.6% (Drug concentration at 1 μg/mL) and 98.1% (Drug concentration at 10 μg/mL).

`Cc1ccc(-c2ccccc2)cc1NC(=O)c1cc(Cl)ccc1O` [compound 172]: the “Inhibitory rate … (%)” value runs as follows: (Drug concentration at 1 μg/mL) 93.7%; (Drug concentration at 10 μg/mL) 96.4%. Taken in the same sequence, the figures for `COc1ccc(C(C)(C)c2ccccc2)cc1NC(=O)c1cc(Cl)ccc1O` [compound 173] were 86.4% and 98.3%.

In the case of `O=C(Nc1cc(N2CCOCC2)ccc1[N+](=O)[O-])c1cc(Cl)ccc1O` [compound 174], the “Inhibitory rate … (%)” value (Drug concentration at 10 μg/mL) is on record as 89.6%.

For `CCCCc1ccc([N+](=O)[O-])cc1NC(=O)c1cc(Cl)ccc1O` [compound 176], the “Inhibitory rate … (%)” value reads like this: (Drug concentration at 1 μg/mL) 96.0%; (Drug concentration at 10 μg/mL) 99.5%. Taken in the same sequence, the figures for `CCC(C)(C)c1ccc(O)c(NC(=O)c2cc(Cl)ccc2O)c1` [compound 177] were 87.8% and 99.4%. On to `COc1ccc(C)cc1NC(=O)c1cc(Cl)ccc1O` [compound 178], for which, under “Drug concentration at 10 μg/mL”, the “Inhibitory rate … (%)” value was 89.7%. As to `O=C(Nc1cc(F)ccc1F)c1cc(Cl)ccc1O` [compound 179], the “Inhibitory rate … (%)” value runs as follows: (Drug concentration at 1 μg/mL) 92.5%; (Drug concentration at 10 μg/mL) 93.4%. The like results for `O=C(Nc1cc(F)cc(F)c1)c1cc(Cl)ccc1O` [compound 180] were, in that order, 90.7% and 93.7%. On to `O=C(Nc1cc(Cl)cc(Cl)c1)c1cc2ccccc2cc1O` [compound 181], for which, for the setting “Drug concentration at 10 μg/mL”, the “Inhibitory rate … (%)” value worked out at 95.1%. In the case of `O=C(Nc1cc(Cl)cc(Cl)c1)c1c(O)ccc2ccccc12` [compound 182], the “Inhibitory rate … (%)” value (Drug concentration at 1 μg/mL) amounted to 85.3% and the “Inhibitory rate … (%)” value (Drug concentration at 10 μg/mL) turned out to be 90.2%. In the case of `COc1ccc(OC)c(NC(=O)c2cc3ccccc3cc2O)c1` [compound 183], the “Inhibitory rate … (%)” value (Drug concentration at 10 μg/mL) was determined as 86.8%. For `CC(C)(C)c1cc(NC(=O)c2cc(Cl)cnc2O)cc(C(C)(C)C)c1` [compound 184], the “Inhibitory rate … (%)” value reads like this: (Drug concentration at 1 μg/mL) 53.6%; (Drug concentration at 10 μg/mL) 63.8%. Consider `CC(C)(C)c1csc(NC(=O)c2cc(Br)ccc2O)n1` [compound 185, 5-Bromo-N-{4-[(1,1-dimethyl)ethyl]thiazol-2-yl}-2-hydroxybenzamide], for which the inhibition at 1 µg/mL (Drug concentration at 1 μg/mL) came out at 88.4%. Also, the inhibition at 10 µg/mL (Drug concentration at 10 μg/mL) came out at 95.2%. On to `CC(C)(C)c1nc(NC(=O)c2cc(Br)ccc2O)sc1Br` [compound 186, 5-Bromo-N-{5-bromo-4-[(1,1-dimethyl)ethyl]thiazol-2-yl}-2-hydroxybenzamide], for which, for the setting “Drug concentration at 1 μg/mL”, the inhibition at 1 µg/mL was 96.5%. Further, under “Drug concentration at 10 μg/mL”, the inhibition at 10 µg/mL was determined as 98.7%. The like results for `CC(C)(C)c1nc(NC(=O)c2cc(Cl)ccc2O)sc1C#N` [compound 188, 5-Chloro-N-{5-cyano-4-[(1,1-dimethyl)ethyl]thiazol-2-yl}-2-hydroxybenzamide] were, in that order, 92.6% and 92.4%. With `CC(C)(C)c1nc(NC(=O)c2cc(Br)ccc2O)sc1C#N` [compound 189], the “Inhibitory rate … (%)” value by setting is: (Drug concentration at 1 μg/mL) 20.0%; (Drug concentration at 10 μg/mL) 93.8%. For the molecule `Cc1cnc(NC(=O)c2cc(Br)ccc2O)s1` [compound 190], the “Inhibitory rate … (%)” value (Drug concentration at 10 μg/mL) is 69.7%. On the same count and under the same terms, as for `Cc1nc(NC(=O)c2cc(Br)ccc2O)sc1C` [compound 191], the figure is 67.2%.

Consider `Cc1sc(NC(=O)c2cc(Br)ccc2O)nc1-c1ccccc1` [compound 192], for which the “Inhibitory rate … (%)” value reads like this: (Drug concentration at 1 μg/mL) 83.6%; (Drug concentration at 10 μg/mL) 94.4%. As to `Cc1nc(NC(=O)c2cc(Br)ccc2O)sc1-c1ccc(F)cc1` [compound 193, 5-Bromo-N-[4-methyl-5-(4-fluorophenyl)thiazol-2-yl]-2-hydroxybenzamide], the inhibition at 10 µg/mL (Drug concentration at 10 μg/mL) was 82%. The same measure, in the same setting: as for `Cc1nc(NC(=O)c2cc(Br)ccc2O)sc1-c1cccc(C(F)(F)F)c1` [compound 194, 5-Bromo-N-{4-methyl-5-[3-(trifluoromethyl)phenyl]thiazol-2-yl}-2-hydroxy-benzamide], the figure is 71.7%. Turning to `CC(C)c1nc(NC(=O)c2cc(Br)ccc2O)sc1-c1ccccc1` [compound 197, 5-Bromo-N-(4-isopropyl-5-phenylthiazol-2-yl)-2-hydroxybenzamide], the inhibition at 1 µg/mL (Drug concentration at 1 μg/mL) was 70.1%. For the same molecule, under “Drug concentration at 10 μg/mL”, the inhibition at 10 µg/mL was found to be 96.1%.

Consider `CCCCc1nc(NC(=O)c2cc(Br)ccc2O)sc1-c1ccccc1` [compound 198, 5-Bromo-N-(4-butyl-5-phenylthiazol-2-yl)-2-hydroxybenzamide], for which, for the setting “Drug concentration at 1 μg/mL”, the inhibition at 1 µg/mL stood at 46.1%. Moreover, the inhibition at 10 µg/mL (Drug concentration at 10 μg/mL) stood at 88.7%. As for `CC(=O)Oc1ccc(Cl)cc1C(=O)Nc1nc(C(C)(C)C)c(C(=O)C(C)(C)C)s1` [compound 200], the “Inhibitory rate … (%)” value was 95.0% (Drug concentration at 1 μg/mL) and 97.7% (Drug concentration at 10 μg/mL). As to `CCOC(=O)c1sc(NC(=O)c2cc(Br)ccc2O)nc1C(C)(C)C` [compound 202, 2-(5-Bromo-2-hydroxybenzoyl)amino-4-[(1,1-dimethyl)ethyl]thiazole-5-carboxylic acid ethyl ester], the inhibition at 1 µg/mL (Drug concentration at 1 μg/mL) was found to be 84.5%. In addition, the inhibition at 10 µg/mL (Drug concentration at 10 μg/mL) is 92.4%. The like results for `CC(C)(C)c1nc(NC(=O)c2cc(Br)ccc2O)sc1N1CCCCC1` [compound 204, 5-Bromo-N-{4-[(1,1-dimethyl)ethyl]-5-piperidinothiazol-2-yl}-2-hydroxybenzamide] were, in that order, 93.6% and 97.8%.

As to `CC(C)(C)c1nc(NC(=O)c2cc(Br)ccc2O)sc1N1CCOCC1` [compound 205, 5-Bromo-N-{4-[(1,1-dimethyl)ethyl]-5-morpholinothiazol-2-yl}-2-hydroxybenzamide], the inhibition at 1 µg/mL (Drug concentration at 1 μg/mL) came out at 87.8%. For the same molecule, the inhibition at 10 µg/mL (Drug concentration at 10 μg/mL) worked out at 96.8%. The like results for `CN1CCN(c2sc(NC(=O)c3cc(Br)ccc3O)nc2C(C)(C)C)CC1` [compound 206, 5-Bromo-N-{4-[(1,1-dimethyl)ethyl]-5-(4-methylpiperazin-1-yl)thiazol-2-yl}-2-hydroxybenzamide] were, in that order, 36.3% and 89.6%. Consider `CC(C)(C)c1nc(NC(=O)c2cc(Br)ccc2O)sc1N1CCN(c2ccccc2)CC1` [compound 207, 5-Bromo-N-{4-[(1,1-dimethyl)ethyl]-5-(4-phenylpiperazin-1-yl)thiazol-2-yl}-2-hydroxybenzamide], for which the inhibition at 1 µg/mL (Drug concentration at 1 μg/mL) was determined as 92.5%. The inhibition at 10 µg/mL (Drug concentration at 10 μg/mL) was 95.9%. Take `O=C(Nc1nc(-c2ccccc2)cs1)c1cc(Br)ccc1O` [compound 208]: the “Inhibitory rate … (%)” value (Drug concentration at 10 μg/mL) was found to be 78.8%.

In the case of `O=C(O)Cc1sc(NC(=O)c2cc(Br)ccc2O)nc1-c1ccccc1` [compound 210], where the note is “Drug concentration at 10 μg/mL”, the “Inhibitory rate … (%)” value amounted to 72.1%. As for `O=C(Nc1nc(Cc2ccccc2)c(-c2ccccc2)s1)c1cc(Br)ccc1O` [compound 212], the “Inhibitory rate … (%)” value by setting is: (Drug concentration at 1 μg/mL) 79.7%; (Drug concentration at 10 μg/mL) 95.0%. The like results for `O=C(Nc1nc(C(F)(F)F)c(-c2ccccc2)s1)c1cc(Br)ccc1O` [compound 213] were, in that order, 85.1% and 89.4%.

In the case of `CC(=O)c1sc(NC(=O)c2cc(Br)ccc2O)nc1-c1ccccc1` [compound 214, 5-Bromo-N-(5-acetyl-4-phenylthiazol-2-yl)-2-hydroxybenzamide], where the note is “Drug concentration at 1 μg/mL”, the inhibition at 1 µg/mL amounted to 70.2%. The inhibition at 10 µg/mL (Drug concentration at 10 μg/mL) is 95.9%. The like results for `O=C(Nc1nc(-c2ccccc2)c(C(=O)c2ccccc2)s1)c1cc(Br)ccc1O` [compound 215, 5-Bromo-N-(5-benzoyl-4-phenylthiazol-2-yl)-2-hydroxybenzamide] were, in that order, 90.7% and 97.3%.

As for `CCOC(=O)c1sc(NC(=O)c2cc(Br)ccc2O)nc1-c1ccccc1` [compound 216, 2-(5-bromo-2-hydroxybenzoyl)amino-4-phenylthiazole-5-carboxylic acid ethyl ester], the inhibition at 1 µg/mL (Drug concentration at 1 μg/mL) was 55.8%. Besides, for the setting “Drug concentration at 10 μg/mL”, the inhibition at 10 µg/mL was found to be 82.8%.

Regarding `CCOC(=O)c1sc(NC(=O)c2cc(Br)ccc2O)nc1-c1ccccc1` [compound 218], the “Inhibitory rate … (%)” value by setting is: (Drug concentration at 1 μg/mL) 80.7%; (Drug concentration at 10 μg/mL) 94.2%. In the case of `CCOC(=O)c1sc(NC(=O)c2cc(Br)ccc2O)nc1-c1c(F)c(F)c(F)c(F)c1F` [compound 219, Ethyl 2-(5-bromo-2-hydroxybenzoyl)amino-4-(pentafluorophenyl)thiazole-5-carboxylate], the inhibition at 1 µg/mL (Drug concentration at 1 μg/mL) was 82.2%. In addition, the inhibition at 10 µg/mL (Drug concentration at 10 μg/mL) turned out to be 96%.

For `CNC(=O)c1sc(NC(=O)c2cc(Br)ccc2O)nc1-c1ccccc1` [compound 220], the “Inhibitory rate … (%)” value reads like this: (Drug concentration at 1 μg/mL) 50.8%; (Drug concentration at 10 μg/mL) 58.6%. The like results for `CCNC(=O)c1sc(NC(=O)c2cc(Br)ccc2O)nc1-c1ccccc1` [compound 221] were, in that order, 51.9% and 84.0%. Taken in the same sequence, the figures for `CC(C)NC(=O)c1sc(NC(=O)c2cc(Br)ccc2O)nc1-c1ccccc1` [compound 222] were 49.6% and 91.3%.

In the case of `O=C(Nc1nc(-c2ccccc2)c(C(=O)NCCc2ccccc2)s1)c1cc(Br)ccc1O` [compound 223], the “Inhibitory rate … (%)” value runs as follows: (Drug concentration at 1 μg/mL) 33.3%; (Drug concentration at 10 μg/mL) 60.4%.
